Calls of active or inactive are those of the source.
Columns and labels:
HeLa = assay: ATP-based viability loss in HeLa cells – cell-based, CellTiter-Glo luminescence, cherry-pick samples, cytotoxicity control for MITF activator project, dose response (AID 540259); assay type: functional; settings: Homo sapiens
Tumor necrosis factor = Tumor necrosis factor (Homo sapiens, UniProt P01375); assay: analog potency on TNFa NF-kB signaling – cell-based, revised, SAR follow-up (AID 2337); assay type: functional
Sequence of Tumor necrosis factor (P01375 whole entry, the tested form may be a part): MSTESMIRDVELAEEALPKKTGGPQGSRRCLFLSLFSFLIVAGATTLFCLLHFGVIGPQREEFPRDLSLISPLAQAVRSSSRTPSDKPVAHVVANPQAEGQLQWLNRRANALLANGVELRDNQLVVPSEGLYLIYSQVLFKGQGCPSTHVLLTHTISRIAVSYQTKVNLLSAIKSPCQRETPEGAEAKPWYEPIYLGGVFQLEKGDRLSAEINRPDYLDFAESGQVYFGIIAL

[1] = biological target: Nucleotide-binding oligomerization domain-containing protein 2 (Homo sapiens, UniProt Q9HC29); assay: PubChem AID 2334; assay type: functional
Sequence of Nucleotide-binding oligomerization domain-containing protein 2 (Q9HC29 whole entry, the tested form may be a part): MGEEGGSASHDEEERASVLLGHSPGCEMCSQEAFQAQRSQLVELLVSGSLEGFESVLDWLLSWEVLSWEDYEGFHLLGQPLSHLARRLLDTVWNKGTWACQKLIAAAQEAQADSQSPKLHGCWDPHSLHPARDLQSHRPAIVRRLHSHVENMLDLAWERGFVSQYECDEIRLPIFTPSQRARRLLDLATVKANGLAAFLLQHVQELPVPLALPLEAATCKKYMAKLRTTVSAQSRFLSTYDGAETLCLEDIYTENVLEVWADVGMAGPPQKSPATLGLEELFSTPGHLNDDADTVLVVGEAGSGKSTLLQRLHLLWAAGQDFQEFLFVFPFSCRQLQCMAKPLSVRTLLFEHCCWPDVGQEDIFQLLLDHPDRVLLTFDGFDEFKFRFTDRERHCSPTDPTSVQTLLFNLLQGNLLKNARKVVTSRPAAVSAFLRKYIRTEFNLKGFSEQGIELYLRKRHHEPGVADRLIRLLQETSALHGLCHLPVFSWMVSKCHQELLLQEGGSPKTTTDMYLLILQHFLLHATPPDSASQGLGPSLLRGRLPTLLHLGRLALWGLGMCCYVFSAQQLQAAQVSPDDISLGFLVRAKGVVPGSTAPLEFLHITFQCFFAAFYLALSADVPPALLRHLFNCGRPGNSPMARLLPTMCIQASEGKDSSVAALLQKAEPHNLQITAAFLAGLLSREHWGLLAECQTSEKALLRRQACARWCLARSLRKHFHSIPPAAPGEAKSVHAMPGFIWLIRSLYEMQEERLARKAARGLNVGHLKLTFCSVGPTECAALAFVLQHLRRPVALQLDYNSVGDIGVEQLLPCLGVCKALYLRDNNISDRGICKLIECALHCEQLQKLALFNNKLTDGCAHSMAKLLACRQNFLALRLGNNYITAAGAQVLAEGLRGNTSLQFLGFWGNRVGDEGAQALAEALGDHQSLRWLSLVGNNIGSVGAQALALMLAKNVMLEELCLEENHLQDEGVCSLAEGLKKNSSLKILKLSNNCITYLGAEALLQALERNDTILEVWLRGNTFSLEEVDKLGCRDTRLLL

Cytochrome P450 2C9 [2] = biological target: T1, Cytochrome P450 2C9 (Homo sapiens, UniProt P11712)
T1 sequence (P11712 whole entry): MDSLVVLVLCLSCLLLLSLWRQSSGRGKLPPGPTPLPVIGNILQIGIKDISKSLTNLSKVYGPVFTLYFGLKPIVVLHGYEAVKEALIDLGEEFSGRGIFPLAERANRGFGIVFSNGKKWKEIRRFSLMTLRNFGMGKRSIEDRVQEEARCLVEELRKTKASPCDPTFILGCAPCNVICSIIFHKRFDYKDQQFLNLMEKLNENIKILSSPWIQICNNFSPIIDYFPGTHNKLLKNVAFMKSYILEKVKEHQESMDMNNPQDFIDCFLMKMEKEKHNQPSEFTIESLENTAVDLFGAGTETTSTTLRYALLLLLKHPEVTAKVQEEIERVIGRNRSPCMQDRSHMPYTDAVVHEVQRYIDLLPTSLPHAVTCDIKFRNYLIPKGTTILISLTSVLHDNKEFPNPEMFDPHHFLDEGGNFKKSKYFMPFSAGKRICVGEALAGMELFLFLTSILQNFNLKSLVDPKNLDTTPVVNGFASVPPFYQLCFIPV

HEK293 [3] = assay: cells; settings: Homo sapiens
[4] = biological target: T2, Nucleotide-binding oligomerization domain-containing protein 1 (Homo sapiens, UniProt Q9Y239); assay: blockers of NOD1 pathway activity – revised, SAR follow-up (AID 2333); assay type: functional
T2 sequence (Q9Y239 whole entry): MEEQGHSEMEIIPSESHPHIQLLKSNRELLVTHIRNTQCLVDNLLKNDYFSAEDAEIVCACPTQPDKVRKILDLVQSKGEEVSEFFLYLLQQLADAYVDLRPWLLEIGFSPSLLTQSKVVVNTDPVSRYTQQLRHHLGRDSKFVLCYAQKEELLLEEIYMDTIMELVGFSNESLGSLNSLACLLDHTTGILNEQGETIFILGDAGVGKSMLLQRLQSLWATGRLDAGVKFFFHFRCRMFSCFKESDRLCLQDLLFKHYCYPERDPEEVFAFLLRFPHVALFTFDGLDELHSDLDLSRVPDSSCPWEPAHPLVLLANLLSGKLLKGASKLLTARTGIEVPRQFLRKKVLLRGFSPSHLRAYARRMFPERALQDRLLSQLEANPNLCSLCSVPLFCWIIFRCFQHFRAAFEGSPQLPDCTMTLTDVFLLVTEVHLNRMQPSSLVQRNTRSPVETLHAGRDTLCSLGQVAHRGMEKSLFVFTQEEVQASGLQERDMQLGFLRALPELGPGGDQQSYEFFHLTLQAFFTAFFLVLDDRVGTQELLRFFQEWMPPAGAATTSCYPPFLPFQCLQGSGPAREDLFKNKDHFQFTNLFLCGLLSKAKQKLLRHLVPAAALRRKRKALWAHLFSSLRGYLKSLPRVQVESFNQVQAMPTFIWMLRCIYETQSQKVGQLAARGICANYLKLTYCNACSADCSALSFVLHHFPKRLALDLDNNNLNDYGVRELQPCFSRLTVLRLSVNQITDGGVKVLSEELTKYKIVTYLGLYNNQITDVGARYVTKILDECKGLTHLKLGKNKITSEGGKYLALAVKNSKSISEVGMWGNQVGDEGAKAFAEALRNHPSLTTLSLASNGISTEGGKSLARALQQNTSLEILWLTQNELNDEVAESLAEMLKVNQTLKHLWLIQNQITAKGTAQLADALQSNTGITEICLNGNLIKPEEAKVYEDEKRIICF

[5] = biological target: T3, Carboxy-terminal domain RNA polymerase II polypeptide A small phosphatase 1 (Homo sapiens, UniProt Q9GZU7); assay: CTDSP1 inhibitors, concentration-response, biochemical, absorbance readout, ultra-high-throughput screen actives (AID 540297); assay type: functional
T3 sequence (Q9GZU7 whole entry): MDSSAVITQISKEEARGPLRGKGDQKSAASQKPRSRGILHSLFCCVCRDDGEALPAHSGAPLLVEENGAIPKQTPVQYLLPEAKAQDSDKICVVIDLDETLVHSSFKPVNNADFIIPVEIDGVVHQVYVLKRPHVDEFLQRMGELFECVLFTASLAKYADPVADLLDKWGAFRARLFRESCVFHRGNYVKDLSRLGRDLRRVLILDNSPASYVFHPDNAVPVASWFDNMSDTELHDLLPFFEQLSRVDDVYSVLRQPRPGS

Cytochrome P450 2C19 = Cytochrome P450 2C19 (Homo sapiens, UniProt P33261); assay: Cytochrome panel assay with activity outcomes. Panel member name: p450-cyp2c19 Compounds with AC50 equal or less than 10 uM are considered active; assay type: functional; settings: read-out: AC50
Sequence of Cytochrome P450 2C19 (P33261 whole entry): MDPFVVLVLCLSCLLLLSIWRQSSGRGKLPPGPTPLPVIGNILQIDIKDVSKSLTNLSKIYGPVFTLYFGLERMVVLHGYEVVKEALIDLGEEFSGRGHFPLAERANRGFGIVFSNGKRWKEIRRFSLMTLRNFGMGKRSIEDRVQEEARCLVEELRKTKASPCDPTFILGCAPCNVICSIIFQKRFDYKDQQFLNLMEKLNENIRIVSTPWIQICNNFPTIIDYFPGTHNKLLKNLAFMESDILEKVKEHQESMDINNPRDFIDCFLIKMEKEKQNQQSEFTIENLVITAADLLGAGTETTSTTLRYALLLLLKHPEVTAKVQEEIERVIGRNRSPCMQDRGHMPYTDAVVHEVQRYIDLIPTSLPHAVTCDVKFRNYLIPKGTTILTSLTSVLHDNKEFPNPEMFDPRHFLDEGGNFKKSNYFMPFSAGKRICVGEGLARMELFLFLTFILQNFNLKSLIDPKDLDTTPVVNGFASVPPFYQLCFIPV

Cytochrome P450 2C9 [6] = biological target: T1, Cytochrome P450 2C9; remark: listed apart in the source
Cytochrome P450 1A2 = biological target: T4, Cytochrome P450 1A2 (Homo sapiens, UniProt P05177);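 note: PubChem cytochrome P450 panel assay, CYP1A2 panel member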
T4 sequence (P05177 whole entry): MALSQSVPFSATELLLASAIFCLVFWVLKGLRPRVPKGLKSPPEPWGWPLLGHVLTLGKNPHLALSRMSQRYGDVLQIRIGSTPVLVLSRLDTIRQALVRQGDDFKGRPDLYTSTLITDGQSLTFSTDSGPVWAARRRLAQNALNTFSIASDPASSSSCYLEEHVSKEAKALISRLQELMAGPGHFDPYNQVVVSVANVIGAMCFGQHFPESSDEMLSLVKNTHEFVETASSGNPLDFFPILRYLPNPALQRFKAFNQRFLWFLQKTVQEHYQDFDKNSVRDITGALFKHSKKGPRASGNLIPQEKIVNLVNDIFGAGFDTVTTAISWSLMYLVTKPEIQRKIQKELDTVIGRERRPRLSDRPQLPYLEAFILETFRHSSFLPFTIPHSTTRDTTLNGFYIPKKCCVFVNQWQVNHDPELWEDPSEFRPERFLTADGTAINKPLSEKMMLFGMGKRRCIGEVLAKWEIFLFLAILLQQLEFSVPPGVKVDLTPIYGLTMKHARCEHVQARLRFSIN

Cytochrome P450 2D6 = Cytochrome P450 2D6 (Homo sapiens, UniProt P10635);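 note: CYP2D6 member of a cytochrome P450 panel assay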
Sequence of Cytochrome P450 2D6 (P10635 whole entry): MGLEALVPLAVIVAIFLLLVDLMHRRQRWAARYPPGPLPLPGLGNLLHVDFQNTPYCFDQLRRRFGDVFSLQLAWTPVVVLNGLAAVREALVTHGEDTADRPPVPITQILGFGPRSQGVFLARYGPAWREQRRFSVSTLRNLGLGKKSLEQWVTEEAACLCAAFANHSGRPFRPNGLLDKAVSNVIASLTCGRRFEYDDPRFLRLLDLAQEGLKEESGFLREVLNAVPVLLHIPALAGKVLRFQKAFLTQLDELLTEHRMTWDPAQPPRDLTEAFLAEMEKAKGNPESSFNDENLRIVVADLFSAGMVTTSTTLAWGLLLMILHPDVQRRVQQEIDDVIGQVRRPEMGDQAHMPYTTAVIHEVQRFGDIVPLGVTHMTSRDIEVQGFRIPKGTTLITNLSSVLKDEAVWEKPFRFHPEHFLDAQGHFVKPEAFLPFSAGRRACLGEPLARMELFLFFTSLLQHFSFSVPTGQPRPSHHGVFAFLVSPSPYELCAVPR

Escherichia coli [7] = assay: microbe, parasite or virus in culture
Escherichia coli [8] = assay: microbe, parasite or virus in culture; remark: listed apart in the source
Nonstructural protein 1 = Nonstructural protein 1 (Influenza A virus, UniProt Q194T2); assay type: functional, Influenza A virus (A/California/07/2009(H1N1))
Sequence of Nonstructural protein 1 (Q194T2 whole entry): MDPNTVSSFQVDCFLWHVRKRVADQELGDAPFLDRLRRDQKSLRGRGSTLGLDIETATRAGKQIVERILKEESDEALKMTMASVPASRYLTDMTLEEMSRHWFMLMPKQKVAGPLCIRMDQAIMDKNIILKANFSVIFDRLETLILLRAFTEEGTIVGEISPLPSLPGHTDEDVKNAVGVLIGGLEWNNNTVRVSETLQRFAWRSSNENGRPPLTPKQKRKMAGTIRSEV

[9] = biological target: T5, Latent membrane protein 1 (Human herpesvirus 4 (strain B95-8), UniProt P03230); assay: LMP1 TES1 pathway selectivity over dsRED control – imaging, HEK293T, dual-color eGFP/dsRED, cherry-picks, selectivity assay for LMP1 NF-kB inhibitor project, dose response (AID 588398); assay type: functional, cell-based
T5 sequence (P03230 whole entry): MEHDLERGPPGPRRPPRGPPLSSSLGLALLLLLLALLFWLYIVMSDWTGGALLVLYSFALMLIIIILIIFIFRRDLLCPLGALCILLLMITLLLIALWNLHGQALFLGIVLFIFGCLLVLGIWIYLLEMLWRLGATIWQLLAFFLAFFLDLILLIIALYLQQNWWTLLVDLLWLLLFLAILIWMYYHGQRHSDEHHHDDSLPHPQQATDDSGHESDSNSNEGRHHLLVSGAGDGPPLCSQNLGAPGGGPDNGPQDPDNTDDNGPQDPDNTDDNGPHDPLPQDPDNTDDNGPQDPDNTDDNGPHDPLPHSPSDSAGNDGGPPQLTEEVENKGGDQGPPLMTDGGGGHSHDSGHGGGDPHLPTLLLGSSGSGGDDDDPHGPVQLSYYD

[10] = biological target: Heat shock protein HSP 90-alpha (Homo sapiens, UniProt P07900); assay type: functional, organism-based
HEK293 [11] = assay: EBV LMP1 TES2 canonical NF-kB signalling blockers – cell-based, HEK293, luciferase, cherry-pick, dose response (AID 588343); assay type: functional; settings: Homo sapiens

c1ccc2c(-c3csc(-c4ccncc4)n3)c[nH]c2c1
AC50 (HeLa): 40.5 µM (active)

CC(=O)Nc1nc2ccccc2n1Cc1ccccc1
IC50 (Tumor necrosis factor): > 20 µM (inactive) | IC50 [1]: > 20 µM (inactive) | AC50 (Cytochrome P450 2C9 [2]): 35.5 µM (inconclusive) | IC50 (HEK293 [3]): > 20 µM (inactive) | IC50 [4]: > 20 µM (inactive)

COc1ccccc1-n1cnc2c(c1=O)c1nc3ccccc3nc1n2-c1ccc(C)cc1
IC50 [5]: 8.78 µM (active)

Cc1scc(C(=O)NN=C(S)NCC2CCCO2)c1C (stereo not drawn)
AC50 (Cytochrome P450 2C19): 6.31 µM (inconclusive) | AC50 (Cytochrome P450 2C9 [6]): inconclusive | AC50 (Cytochrome P450 1A2): 11.2 µM (inconclusive) | AC50 (Cytochrome P450 2D6): inconclusive

C[C@H](NC(=O)c1[nH]cnc1C(=O)NCC(=O)OC(C)(C)C)c1ccccc1
AC50 (Escherichia coli [7]): 52.9 µM (active) | AC50 (Escherichia coli [8]): 46.2 µM (active)

c1ccc(-c2ccc3sccc3n2)cc1
AC50 (HeLa): 79 µM (active)

CC(=NNC(=S)N1CCCCCC1)c1ccccn1
IC50 (Nonstructural protein 1): 3 µM (active) | AC50 [9]: 4.98 µM (active) | AC50 [10]: 3.49 µM (active) | AC50 (HEK293 [11]): 0.545 µM (active)

Cc1cc(C)c(S(=O)(=O)N2CCN(C(=O)c3ccccc3OCc3c(C)noc3C)CC2)c(C)c1
AC50 [9]: 91.5 µM (active)

Cc1nonc1C(=O)NN=Cc1ccc([N+](=O)[O-])o1
IC50 (Tumor necrosis factor): > 20 µM (inactive) | IC50 [1]: 19.7 µM (active) | IC50 (HEK293 [3]): > 20 µM (inactive) | IC50 [4]: 16.4 µM (active)
